Some results are limits rather than exact numbers.

For 16 molecules, EC50 results are on record in patent US20150344457A1, “METHODS OF INHIBITING PRMT5” (EPIZYME, INC., priority 2012, published 2015).

The subject of test [1] is Z-138 cells. The test is described as follows: Z-138 Methylation Assay (In Cell Western for symmetric di-methyl arginine and DNA content). Type of test: cell-based. The following applies: Homo sapiens, Table D-2, read-out: ICW EC50. An outline of the steps:
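Z-138 cells at 50,000 cells/mL exposed to compound 96 h at 37 °C, then attached to poly-D-lysine plates, fixed with paraformaldehyde and probed with anti-symmetric di-methyl arginine plus DRAQ5 DNA stain. 800/700 nm ratio normalized to DMSO and 3 μM reference controls; IC50 from triplicate wells.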

The subject of test [2] is Z-138 cells. The test is described as follows: Z-138 Proliferation Assay (Cell Titer Glo, 5 days). In kind it is cell-based. Particulars: Homo sapiens, Table D-2. An outline of the steps: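 Exponentially growing Z-138 cells (10,000 cells/ml) in RPMI 1640 with 10% FBS are exposed to nine-point 3-fold dilutions (final top concentration 20 μM, 0.2% DMSO) for 5 days at 37° C. Viability is measured as ATP by CellTiter-Glo luminescence. The 50% inhibitory concentration comes from a 4-parameter fit.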
For orientation: ATP-based viability assays read luminescence as a measure of living cells.

With `CN1CCN(C(=O)Cn2ccc3cnc(-c4cccc(OCC(O)CN5CCc6ccccc6C5)c4)nc32)CC1` (centres unmarked) [Compound D244], the EC50 (as a rule, the concentration giving half of the maximal effect) in the test with Z-138 cells [1] was in the range of 101 to 1000 nM; in the test on Z-138 cells [2] it was 10000 to 40000 nM.
Take `OC(CNc1cc(-c2ccc3ncn(C4CCNC4)c3c2)ccn1)CN1CCc2ccccc2C1` (centres unmarked) [Compound D240]: the EC50 with Z-138 cells [1] lay within 101 to 1000 nM; with Z-138 cells [2], 1000 to 10000 nM.
With `O=C(c1ccc(Cn2nccc2-c2ccc(OCC(O)CN3CCc4ccccc4C3)cc2)cc1)N1CCCC1` (centres unmarked) [Compound D31], the figures for the EC50 in the test with Z-138 cells [1] and in the test on Z-138 cells [2] were 1000 to 10000 nM and 10000 to 40000 nM, respectively.
For `CC(=O)c1cccc(-c2cccc(OCC(O)CN3CCc4ccccc4C3)c2)c1` (centres unmarked) [Compound D67] the same measures were 1000 to 10000 nM and 10000 to 40000 nM.
For `CNC(=O)Cn1cnc2ccc(-c3cccc(OCC(O)CN4CCc5ccccc5C4)c3)cc21` (centres unmarked) [Compound D262], in that order: 1000 to 10000 nM and 1000 to 10000 nM.
For `OC(COc1cccc(-c2ccc3nn[nH]c3c2)c1)CN1CCc2ccccc2C1` (centres unmarked) [Compound D84], in that order: 1000 to 10000 nM and 1000 to 10000 nM.
In the case of `CN1CCN(C(=O)Cn2cnc3ccc(-c4cccc(OCC(O)CN5CCc6ccccc6C5)c4)cc32)CC1` (centres unmarked) [Compound D270], the EC50 in the test with Z-138 cells [1] was 101 to 1000 nM; in the test on Z-138 cells [2] it was 10000 to 40000 nM.
Take `OC(COc1cccc(-c2cccc3cccnc23)c1)CN1CCc2ccccc2C1` (centres unmarked) [Compound D65]: the results for the EC50 with Z-138 cells [1] and with Z-138 cells [2] were 101 to 1000 nM and 10000 to 40000 nM, respectively.
With `OC(COc1cccc(-c2ccc3cn[nH]c3c2)c1)CN1CCc2ccccc2C1` (centres unmarked) [Compound D58], the figures for the EC50 in the test on Z-138 cells [1] and with Z-138 cells [2] were 1000 to 10000 nM and 10000 to 40000 nM, respectively.
For `OC(CNc1cc(-c2ccc3ncn(C4CCNCC4)c3c2)ccn1)CN1CCc2ccccc2C1` (centres unmarked) [Compound D241], in that order: 101 to 1000 nM and 1000 to 10000 nM.
For `OC(COc1cccc(-c2ccc3ncn(C4CCNC4)c3c2)c1)CN1CCc2ccccc2C1` (centres unmarked) [Compound D209], the EC50 was in the range of 101 to 1000 nM in the test on Z-138 cells [1] and 1000 to 10000 nM in the test on Z-138 cells [2].
As to `Cn1cnc2ccc(-c3cc(NCC(O)CN4CCc5ccccc5C4)n[nH]3)cc21` (centres unmarked) [Compound D271], the half-maximal effective concentration (EC50) is 101 to 1000 nM in the test with Z-138 cells [1] and greater than 20000 nM in the test on Z-138 cells [2].
Regarding `Cn1cnc2ccc(-c3ccnc(NCC(O)CN4CCc5ccccc5C4)c3)nc21` (centres unmarked) [Compound D238], the EC50 with Z-138 cells [1] is less than 100 nM; in the test on Z-138 cells [2], 1000 to 10000 nM.
As to `COc1ccc(-c2cccc(OCC(O)CN3CCc4ccccc4C3)c2)c(Cl)c1` (centres unmarked) [Compound D88], the EC50 in the test on Z-138 cells [1] fell in the range of 1000 to 10000 nM; in the test with Z-138 cells [2], 10000 to 40000 nM.
For `Cn1ncc2c1CN(c1cccc(OCC(O)CN3CCc4ccccc4C3)c1)CC2` (centres unmarked) [Compound D216] the same measures were 1000 to 10000 nM and greater than 20000 nM.
In the case of `CC(=O)N1CCC(n2ccc3cnc(-c4cccc(OCC(O)CN5CCc6ccccc6C5)c4)nc32)CC1` (centres unmarked) [Compound D243], the figures for the EC50 with Z-138 cells [1] and in the test on Z-138 cells [2] were 101 to 1000 nM and 1000 to 10000 nM, respectively.
